The source of these data is patent US20130204033A1, “ANTIPROLIFERATIVE COMPOUNDS, CONJUGATES THEREOF, METHODS THEREFOR, AND USES THEREOF” (Medarex, Inc., priority 2009, published 2013).

Where two headings read alike, the source gives them in different places.

What all share (format): cell-based, human
Assay [1] has as its system HCT-15. The assay can be described thus: 3H thymidine proliferation assay, HCT-15. The conditions noted are these: 3H thymidine method, 72 h incubation, read-out: EC50, HCT-15. The protocol: (§1) This example generally describes the procedures used to assay the antiproliferative activity of compounds of this invention or their conjugates. Human tumor cell lines were obtained from the American Type Culture Collection (ATCC), P.O. Box 1549, Manassas, Va. 20108, USA, and cultured according to instruction from the ATCC. Cells were seeded at 1.0×10^3 or 1.0×10^4 cells/well in 96-well plates for 3 h for ATP assays or ^3H thymidine assays, respectively. 1:3 serial dilutions of free (unconjugated) compounds or their conjugates were added to the wells. Plates were allowed to incubate for 24 to 72 h. The ^3H thymidine plates were pulsed with 1.0 μCi of ^3H-thymidine per well for the last 24 hours of the total incubation period, harvested, and read on a Top Count Scintillation Counter (Packard Instruments, Meriden, Conn.). ATP levels in the ATP plates were measured using the […]-GLO® Luminescent Cell Viability kit following the manufacturer's manual and read on a GLOMAX® 20/20 luminometer (both from Promega, Madison, Wis., USA). The EC50 values—the concentration at which an agent inhibits or reduces cell proliferation by 50% —were determined using PRISM™ software, version 4.0 (GraphPad Software, La Jolla, Calif., USA).
(§2) Using the ^3H thymidine or the ATP luminescence assay, or both, the activities of compounds of this invention were assayed against the following cancer cell lines: HCT-15 (colorectal cancer, multi-drug resistant (MDR)); Hep3B (liver cancer); LNCaP (prostate cancer, androgen receptor positive (AR^+)); MDA-MB-231 (breast cancer, estrogen receptor, progesterone receptor, and Her2 negative (triple negative)); A2058 (melanoma); U-87 MG (glioblastoma); NCI-H460 (NSCLC); A549 (NSCLC); HPAC (pancreatic cancer, primary); PC3 (prostate cancer, AR); BT474 (breast cancer, Her2 highly positive (Her2hi)); SKOV3 (ovarian cancer, Her2hi); 786-O (renal cancer); UO-31 (renal cancer, MDR); NCI-H740 (SCLC); DMS53 (SCLC); SK-BR3 (breast cancer, Her2hi); ZR-75 (breast cancer, estrogen receptor positive); OVCAR3 (ovarian cancer); HL-60 (APL); OVCAR8/Adr (ovarian cancer, MDR); CEM-Cl (ALL); Nomo-1 (AML); RPMI-8226 (MM)); Raji (lymphoma); SW-480 (colorectal cancer, metastatic); SW-620 (colorectal cancer); and H226 (lung cancer). (Not all compounds were assayed against all cell lines.)
(§3) Table 2 provides the data for proliferation assays using the ^3H thymidine method, with an incubation period of 72 h.

Assay [2] relates to A2058. In words: 3H thymidine proliferation assay, A2058. Particulars: 3H thymidine method, 72 h incubation. The protocol:
as §1, §2, §3

Assay [3] concerns NCI-H460. In words: 3H thymidine proliferation assay, NCI-H460. Particulars: 3H thymidine method, 72 h incubation, read-out: EC50, NCI-H460. The protocol:
as §1, §2, §3

Assay [4] concerns A549. The assay can be described thus: 3H thymidine proliferation assay, A549. Particulars: 3H thymidine method, 72 h incubation, read-out: EC50, A549. The protocol: as §1, §2, §3
The test system of assay [5] is PC3. The assay can be described thus: 3H thymidine proliferation assay, PC3. The conditions noted are these: 3H thymidine method, 72 h incubation, read-out: EC50, PC3. The protocol: as §1, §2, §3
In assay [6] the test system is BT474. The assay can be described thus: 3H thymidine proliferation assay, BT474. The conditions noted are these: 3H thymidine method, 72 h incubation, read-out: EC50, BT474. The protocol:
as §1, §2, §3

Assay [7] has as its system 786-O. In words: 3H thymidine proliferation assay, 786-O. The conditions noted are these: 3H thymidine method, 72 h incubation, read-out: EC50, 786-O. The protocol:
as §1, §2, §3

For assay [8], the system named is UO-31. The assay can be described thus: 3H thymidine proliferation assay, UO-31. The conditions noted are these: 3H thymidine method, 72 h incubation, read-out: EC50, UO-31. The protocol: as §1, §2, §3
Assay [9] concerns H740. In words: 3H thymidine proliferation assay, H740. Particulars: 3H thymidine method, 72 h incubation, read-out: EC50, H740. The protocol:
as §1, §2, §3

Assay [10] has as its system DMS53. In words: 3H thymidine proliferation assay, DMS53. Particulars: 3H thymidine method, 72 h incubation, read-out: EC50, DMS53. The protocol: as §1, §2, §3
For assay [11], the system named is HL-60. In words: 3H thymidine proliferation assay, HL-60. Particulars: 3H thymidine method, 72 h incubation, read-out: EC50, HL-60. The protocol:
as §1, §2, §3

In assay [12] the test system is OVCAR8. In words: 3H thymidine proliferation assay, OVCAR8. The conditions noted are these: 3H thymidine method, 72 h incubation, read-out: EC50, OVCAR8. The protocol:
as §1, §2, §3

Assay [13] deals with Nomo-1. In words: 3H thymidine proliferation assay, Nomo-1. The conditions noted are these: 3H thymidine method, 72 h incubation, read-out: EC50, Nomo-1. The protocol: as §1, §2, §3
Assay [14] concerns Raji. In words: 3H thymidine proliferation assay, Raji. Particulars: 3H thymidine method, 72 h incubation, read-out: EC50, Raji. The protocol:
as §1, §2, §3

The test system of assay [15] is HCT-15. The assay can be described thus: ATP luminescence proliferation assay, HCT-15. Particulars: ATP luminescence. The protocol:
as §1, §2
(§4) Table 3 provides the data for the ATP luminescence proliferation assays, with an incubation period of 48, 72, or 96 h, as noted.

Assay [16] deals with Hep3B. The assay can be described thus: ATP luminescence proliferation assay, Hep3B. Particulars: ATP luminescence, 48 h incubation, read-out: EC50 Hep3B (48 h). The protocol:
as §1, §2, §4

For assay [17], the system named is A2058. In words: ATP luminescence proliferation assay, A2058. Particulars: ATP luminescence. The protocol:
as §1, §2, §4

Assay [18] has as its system HPAC. The assay can be described thus: ATP luminescence proliferation assay, HPAC. Particulars: ATP luminescence, 72 h incubation, read-out: EC50 HPAC (72 h). The protocol:
as §1, §2, §4

In assay [19] the test system is BT474. The assay can be described thus: ATP luminescence proliferation assay, BT474. Particulars: ATP luminescence. The protocol:
as §1, §2, §4

The subject of assay [20] is CEM-Cl. The assay can be described thus: ATP luminescence proliferation assay, CEM-C1. The conditions noted are these: ATP luminescence, CEM-C1, 72 h incubation, read-out: EC50 CEM-C1 (72 h). The protocol: as §1, §2, §4
Assay [21] deals with SW-620. In words: ATP luminescence proliferation assay, SW-620. Particulars: ATP luminescence, SW-620, 96 h incubation, read-out: EC50 SW-620 (96 h). The protocol:
as §1, §2, §4

Where [22] appears, read: BT474, 48 h incubation, read-out: EC50 BT474 (48 h).
[23] abbreviates: Homo sapiens, HCT-15, 72 h incubation, read-out: EC50 HCT-15 (72 h).
Setting [24] is: Homo sapiens, A2058, 72 h incubation, read-out: EC50 A2058 (72 h).
[25] abbreviates: Homo sapiens, BT-474, BT474, 72 h incubation, read-out: EC50 BT474 (72 h).

Turning to `CC[C@H](C)[C@H](NC(=O)[C@H]1CCCCN1C)C(=O)N(COC(=O)CC(C)C)[C@H](C[C@@H](O)c1nc(C(=O)N[C@@H](Cc2ccccc2)C(=O)OC)cs1)C(C)C` [Compound 28], the EC50 is 223 nM in assay [1]; 0.96 nM in assay [2]; more than 100 nM in [3]; more than 100 nM in assay [4]; more than 100 nM in assay [5]; more than 100 nM in assay [6]. In addition, the EC50 was 61 nM in assay [7]; more than 100 nM in assay [8]; 5.8 nM in assay [9]; more than 100 nM in assay [10]; 7.7 nM in assay [11]; 27 nM in assay [12]. The EC50 in assay [13] is 0.2 nM; in assay [14], 13 nM; in assay [15] (HCT-15, 72 h incubation, read-out: EC50 HCT-15 (72 h)), 132 nM; in [16], 17 nM; in [17] (A2058, 72 h incubation, read-out: EC50 A2058 (72 h)), 20 nM; in assay [18], 5.9 nM. Also, the values for the concentration for a half-maximal effect (EC50) in assay [19] (setting [22]), in assay [20] and in [21] were 12 nM, 11 nM and 21 nM, respectively.
As to `CC[C@H](C)[C@H](NC(=O)[C@H]1CCCCN1C)C(=O)N(C)[C@H](C[C@@H](OC(C)=O)c1nc(C(=O)N[C@@H](Cc2ccc(N)cc2)C(=O)O)cs1)C(C)C` [Compound 56], the EC50 was 2480 nM in [1]; more than 100 nM in assay [2]; more than 100 nM in [3]; more than 100 nM in assay [4]; more than 100 nM in assay [5]; more than 100 nM in assay [6]. The concentration for a half-maximal effect (EC50) was 29 nM in [7]; more than 100 nM in assay [8]; more than 100 nM in assay [9]; more than 100 nM in assay [10]; more than 100 nM in assay [11]; more than 3000 nM in [12]. Moreover, the concentration for a half-maximal effect (EC50) in assay [13] was more than 100 nM; in assay [14], more than 100 nM; in [15] (HCT-15, 48 h incubation, read-out: EC50 HCT-15 (48 h)), more than 3000 nM; in assay [16], more than 100 nM; in [17] (A2058, 48 h incubation, read-out: EC50 A2058 (48 h)) it was more than 100 nM; in [19] (setting [22]), more than 100 nM. Besides, the values for the half-maximal effective concentration (EC50) in assay [20] and in assay [21] were more than 100 nM and 28 nM, respectively.
As to `Nc1ccc(C(=O)Nc2ccc3[nH]c(C(=O)N4C[C@@H](CCl)c5c4cc(O)c4ccccc54)cc3c2)cc1` [CBI, reference compound], the concentration giving a half-maximal response (EC50) in assay [1] (Homo sapiens, HCT-15) was determined as 0.04 nM; in [3] (Homo sapiens, NCI-H460) it was 0.042 nM; in [4] (Homo sapiens, A549) it was 0.072 nM; in assay [5] (Homo sapiens, PC-3) it was 0.049 nM; in assay [6] (Homo sapiens, BT-474), 1.2 nM; in assay [7] (Homo sapiens, 786-0), 0.035 nM. In addition, the EC50 in assay [8] (Homo sapiens, UO-31) came out at 0.035 nM; in assay [9] (Homo sapiens), 0.098 nM; in [10] (Homo sapiens, DMS-53), 1.5 nM; in assay [11] (Homo sapiens, HL-60) it was 0.027 nM; in assay [12] (Homo sapiens, OVCAR-8), 0.16 nM; in assay [13] (Homo sapiens, NOMO-1) it was 0.016 nM. The 50% effective concentration (EC50) worked out at 0.013 nM in [14] (Homo sapiens, Raji); 3.4 nM in [15] (setting [23]); 2.6 nM in [16] (Homo sapiens); 0.2 nM in assay [17] (setting [24]); 6 nM in assay [18] (Homo sapiens); 5.5 nM in assay [19] (setting [25]). Also, the figures for the 50% effective concentration (EC50) in assay [20] (Homo sapiens) and in assay [21] (Homo sapiens) were 0.55 nM and 0.33 nM, respectively.
With `COc1cccc2c1C(=O)c1c(O)c3c(c(O)c1C2=O)C[C@@](O)(C(=O)CO)C[C@@H]3O[C@H]1C[C@H](N)[C@H](O)[C@H](C)O1` [Dox, doxorubicin, reference compound], the concentration for a half-maximal effect (EC50) turned out to be 149 nM in assay [1] (Homo sapiens, HCT-15); 101 nM in assay [3] (Homo sapiens, NCI-H460); 128 nM in [4] (Homo sapiens, A549); 276 nM in assay [5] (Homo sapiens, PC-3); 424 nM in assay [6] (Homo sapiens, BT-474); 168 nM in assay [7] (Homo sapiens, 786-0). In addition, the EC50 in assay [8] (Homo sapiens, UO-31) amounted to 267 nM; in [9] (Homo sapiens), 255 nM; in assay [10] (Homo sapiens, DMS-53), 979 nM; in [11] (Homo sapiens, HL-60), 56 nM; in assay [12] (Homo sapiens, OVCAR-8), 2040 nM; in assay [13] (Homo sapiens, NOMO-1), 105 nM. The EC50 in assay [14] (Homo sapiens, Raji) worked out at 61 nM; in [15] (setting [23]), 600 nM; in [16] (Homo sapiens) it was 443 nM; in assay [17] (setting [24]) it was 101 nM; in assay [18] (Homo sapiens), 215 nM; in assay [19] (setting [25]) it was 388 nM. Besides, the 50% effective concentration (EC50) in assay [20] (Homo sapiens) was 161 nM; in [21] (Homo sapiens) it was 145 nM.
